What was measured:
A549 cells [1] = assay: Prodrug safety dose-response cell viability (PrestoBlue), A549; assay type: cell-based; conditions: Homo sapiens, 120 h, 5 days, no catalyst
Experimental: These cell lines were selected as these are primary malignancies against which the parental drugs are currently prescribed.
The toxicities of each active agent and prodrugs were compared by performing dose-response studies. […] Cell viability was analysed by fluoresce intensity (λex=540 nm; λem=590 nm) after 60-90 min incubation with PrestoBlue™ Reagent (Life Technologies).

A549 cells [2] = assay: BOOM conversion: prodrug + metal resins in cell culture, cell viability, A549; assay type: cell-based, human
Experimental: Cell viabilities for each prodrug provided as a combination with palladium is presented in FIG. 3 and gold is presented in FIG. 33 in the right of each set of two bars. […] Cells were incubated in tissue culture media containing 0.1% (v/v) DMSO and: Pd^0, Au, or Pd/Au-resins (1 mg/mL, negative control); 100 μM of each prodrug (negative control); and Pd^0, Au, or Pd/Au-resins (1 mg/mL)+100 μM of each prodrug (BOOM reaction assay). Cells incubated in 0.1% (v/v) DMSO in media were used as untreated cell control.
Following 5 days treatment, cells were incubated with PrestoBlue™ Cell Viability Reagent (Life Technologies) for 60-90 min. Fluorescence intensity values were related to the untreated cells (100% cell viability). […] Cells incubated in 0.1% (v/v) DMSO in media were used as untreated cell control.
(§1) Cell viabilities for each prodrug provided as a combination with palladium is presented in FIG. 7 in the right of each set of two bars. Data for prodrug in the absence of palladium catalyst is also provided (the left bar of each set of two bars) for comparison along with negative controls (from left to right: DMSO, Pd^0 and Doxorubicin). Cells were incubated in tissue culture media containing 0.1% (v/v) DMSO and: Pd^0-resins (1 mg/mL, negative control); 1 μM of each prodrug (negative control); and Pd^0-resins (1 mg/mL)+1 μM of each prodrug (BOOM reaction assay). Cells incubated in 0.1% (v/v) DMSO in media were used as untreated cell control.
Following 5 days treatment, cells were incubated with PrestoBlue™ Cell Viability Reagent (Life Technologies) for 90 min. Fluorescence intensity values were related to the untreated cells (100% cell viability). Data are provided in FIG. 8 for cells incubated in tissue culture media containing 0.1% (v/v) DMSO and: Pd^0-resins (1 mg/mL, negative control); 0.3-3 μM of Doxorubicin prodrug for A549 and DU145 cell lines, 0.1-1 μM of Doxorubicin prodrug for T98 cell line (negative control); 0.3-3 μM of Doxorubicin for A549 and DU145 cell lines, 0.1-1 μM of Doxorubicin for T98 cell line (positive control); and Pd^0-resin (1 mg/mL)+Doxorubicin prodrug (BOOM reaction assay). Cells incubated in 0.1% (v/v) DMSO in media were used as untreated cell control.
as §1, with “21” for “7”, “panobinostat).” for “Doxorubicin).”
The toxigenic effect as a result of in situ generation of parental drug in cell culture was determined by incubating all cells in tissue culture media containing 0.1% (v/v) DMSO and a) Pd^0, Au, or Pd/Au-resin (1 mg/mL for all cells tested, negative control); b) prodrug (negative control); or c) Pd^0, Au, or Pd/Au-resin (1 mg/mL for all cells)+prodrug (reaction assay). Cells incubated in 0.1% (v/v) DMSO in media was used as an untreated cell reference standard (100% viability). A PrestoBlue® cell viability assay as described above was carried out and fluorescent intensities compared to the untreated cell control.
A dose response study was performed for each cell line keeping the quantity of Pd^0 resin constant (0.8 mg/mL for U87G and 1 mg/mL for the rest of cell lines). All cells were plated in Dulbecco's Modified Eagle Media (DMEM) supplemented with serum (10% FBS) and L-glutamine (2 mM). […]

EC50 (A549 cells [2]; Homo sapiens, 120 h, prodrug in combination with Pd0-resins 1 mg/mL, 5 days, read-out: EC50, prodrug + Pd-resins): 10.5 µM
SMILES: C#CCOc1ccc(CONC(=O)CCCCCCC(=O)Nc2ccccc2)cc1 [POB-Vor, Propargyloxybenzyl-Vorinostat]
EC50 (A549 cells [1]): > 500 µM | toxigenic effect of prodrug + Au resins (A549 cells [2]; Au resins 1 mg/mL, prodrug 100 μM): strong toxigenic effect | toxigenic effect of prodrug + Pd0 resins (A549 cells [2]; Pd0-resin 1 mg/mL, 100 μM Vorinostat prodrugs, 1 μM Doxorubicin prodrugs, 0.3 μM Panobinostat prodrug): strong toxigenic effect | toxigenic effect of prodrug + Pd/Au resins (A549 cells [2]; Pd/Au resins 1 mg/mL, prodrug 100 μM): strong toxigenic effect

From patent publication US20200289554A1, “BIOORTHOGONAL COMPOUNDS COMPRISING A PROPARGYL GROUP FOR TREATING CANCER” (THE UNIVERSITY COURT OF THE UNIVERSITY OF EDINBURGH, priority 2016, published 2020)
